Measured values published in ChEMBL document CHEMBL3351810, “[(11)C-carbonyl]CEP-32496: radiosynthesis, biodistribution and PET study of brain uptake in P-gp/BCRP knockout mice” (Bioorg Med Chem Lett, 2014).

Columns and labels:
Blood [1] = test: Biodistribution in mouse blood at 8.4 MBq/0.1 ml, iv after 30 mins by PET imaging analysis; assay type: ADME, organism-based; details: in vivo, 0.5 h
Mus musculus [2] = test: Biodistribution in mouse small intestine at 8.4 MBq/0.1 ml, iv after 60 mins by PET imaging analysis; assay type: ADME, organism-based; details: in vivo, 1 h
Liver [3] = test: Biodistribution in mouse liver at 8.4 MBq/0.1 ml, iv after 5 mins by PET imaging analysis; assay type: ADME, organism-based; details: in vivo
Spleen [4] = test: Biodistribution in mouse spleen at 8.4 MBq/0.1 ml, iv after 30 mins by PET imaging analysis; assay type: ADME, organism-based; details: in vivo, 0.5 h
Muscle tissue [5] = test: Biodistribution in mouse muscle at 8.4 MBq/0.1 ml, iv after 60 mins by PET imaging analysis; assay type: ADME, organism-based; details: in vivo, 1 h
Mus musculus [6] = test: Biodistribution in mouse small intestine at 8.4 MBq/0.1 ml, iv after 30 mins by PET imaging analysis; assay type: ADME, organism-based; details: in vivo, 0.5 h
Brain [7] = test: Biodistribution in mouse brain at 8.4 MBq/0.1 ml, iv after 15 mins by PET imaging analysis; assay type: ADME, organism-based; details: in vivo, 0.25 h
Mus musculus [8] = test: Biodistribution in mouse large intestine at 8.4 MBq/0.1 ml, iv after 30 mins by PET imaging analysis; assay type: ADME, organism-based; details: in vivo, 0.5 h
Mus musculus [9] = test: Biodistribution in mouse large intestine at 8.4 MBq/0.1 ml, iv after 1 min by PET imaging analysis; assay type: ADME, organism-based; details: in vivo
Mus musculus [10] = test: Biodistribution in mouse small intestine at 8.4 MBq/0.1 ml, iv after 1 min by PET imaging analysis; assay type: ADME, organism-based; details: in vivo
Brain [11] = test: Biodistribution in wild type mouse brain by PET imaging analysis; assay type: ADME, organism-based; details: in vivo
Mus musculus [12] = test: Biodistribution in mouse small intestine at 8.4 MBq/0.1 ml, iv after 15 mins by PET imaging analysis; assay type: ADME, organism-based; details: in vivo, 0.25 h
Liver [13] = test: Biodistribution in mouse liver at 8.4 MBq/0.1 ml, iv after 30 mins by PET imaging analysis; assay type: ADME, organism-based; details: in vivo, 0.5 h
Heart [14] = test: Biodistribution in mouse heart at 8.4 MBq/0.1 ml, iv after 15 mins by PET imaging analysis; assay type: ADME, organism-based; details: in vivo, 0.25 h
Heart [15] = test: Biodistribution in mouse heart at 8.4 MBq/0.1 ml, iv after 30 mins by PET imaging analysis; assay type: ADME, organism-based; details: in vivo, 0.5 h
Brain [16] = test: Ratio of drug uptake in P-gp/BCRP knockout mouse brain to wild type mouse brain; assay type: ADME; details: in vivo
Mus musculus [17] = test: Biodistribution in mouse large intestine at 8.4 MBq/0.1 ml, iv after 5 mins by PET imaging analysis; assay type: ADME, organism-based; details: in vivo
Kidney = test: Biodistribution in mouse kidney at 8.4 MBq/0.1 ml, iv after 1 min by PET imaging analysis; assay type: ADME, organism-based; details: in vivo
Mus musculus [18] = test: Biodistribution in mouse small intestine at 8.4 MBq/0.1 ml, iv after 5 mins by PET imaging analysis; assay type: ADME, organism-based; details: in vivo
Pancreas [19] = test: Biodistribution in mouse pancreas at 8.4 MBq/0.1 ml, iv after 15 mins by PET imaging analysis; assay type: ADME, organism-based; details: in vivo, 0.25 h
Pancreas [20] = test: Biodistribution in mouse pancreas at 8.4 MBq/0.1 ml, iv after 30 mins by PET imaging analysis; assay type: ADME, organism-based; details: in vivo, 0.5 h
Muscle tissue [21] = test: Biodistribution in mouse muscle at 8.4 MBq/0.1 ml, iv after 15 mins by PET imaging analysis; assay type: ADME, organism-based; details: in vivo, 0.25 h
Brain [22] = test: Biodistribution in mouse brain at 8.4 MBq/0.1 ml, iv after 30 mins by PET imaging analysis; assay type: ADME, organism-based; details: in vivo, 0.5 h
Spleen [23] = test: Biodistribution in mouse spleen at 8.4 MBq/0.1 ml, iv after 60 mins by PET imaging analysis; assay type: ADME, organism-based; details: in vivo, 1 h
Brain [24] = test: Ratio of AUC (0 to 90 mins) in P-gp/BCRP knockout mouse brain to AUC (0 to 90 mins) in wild type mouse brain; details: in vivo
Pancreas [25] = test: Biodistribution in mouse pancreas at 8.4 MBq/0.1 ml, iv after 60 mins by PET imaging analysis; assay type: ADME, organism-based; details: in vivo, 1 h
Brain [26] = test: Biodistribution in mouse brain at 8.4 MBq/0.1 ml, iv after 1 min by PET imaging analysis; assay type: ADME, organism-based; details: in vivo
Blood [27] = test: Biodistribution in mouse blood at 8.4 MBq/0.1 ml, iv after 1 min by PET imaging analysis; assay type: ADME, organism-based; details: in vivo
Muscle tissue [28] = test: Biodistribution in mouse muscle at 8.4 MBq/0.1 ml, iv after 5 mins by PET imaging analysis; assay type: ADME, organism-based; details: in vivo
Lung = test: Biodistribution in mouse lung at 8.4 MBq/0.1 ml, iv after 15 mins by PET imaging analysis; assay type: ADME, organism-based; details: in vivo, 0.25 h

**Q.** `COc1cc2ncnc(Oc3cccc(N[11C](=O)Nc4cc(C(C)(C)C(F)(F)F)on4)c3)c2cc1OC.Cl` was tested. Which Drug uptake (Blood [1]) did it give?
**A.** 0.87 % ID/g

**Q.** And the Drug uptake (Mus musculus [2])?
**A.** 21.23 % ID/g

**Q.** And the Drug uptake (Liver [3])?
**A.** 15.3 % ID/g

**Q.** What about the Drug uptake (Spleen [4]) of the same molecule?
**A.** 2.03 % ID/g

**Q.** What about the Drug uptake (Muscle tissue [5]) of the same molecule?
**A.** 1.06 % ID/g

**Q.** And the Drug uptake (Mus musculus [6])?
**A.** 25.4 % ID/g

**Q.** What about the Drug uptake (Brain [7]) of the same molecule?
**A.** 0.11 % ID/g

**Q.** What about the Drug uptake (Mus musculus [8]) of the same molecule?
**A.** 1.69 % ID/g

**Q.** And the Drug uptake (Mus musculus [9])?
**A.** 0.81 % ID/g

**Q.** And the Drug uptake (Mus musculus [10])?
**A.** 5.92 % ID/g

**Q.** And the Drug uptake (Brain [11])?
**A.** Active

**Q.** And the Drug uptake (Mus musculus [12])?
**A.** 22.18 % ID/g

**Q.** What about the Drug uptake (Liver [13]) of the same molecule?
**A.** 18.42 % ID/g

**Q.** And the Drug uptake (Heart [14])?
**A.** 3.56 % ID/g

**Q.** And the Drug uptake (Heart [15])?
**A.** 3.08 % ID/g

**Q.** What about the Ratio (Brain [16]) of the same molecule?
**A.** 24

**Q.** And the Drug uptake (Mus musculus [17])?
**A.** 0.76 % ID/g

**Q.** What about the Drug uptake (Kidney) of the same molecule?
**A.** 12.33 % ID/g

**Q.** And the Drug uptake (Mus musculus [18])?
**A.** 14.31 % ID/g

**Q.** And the Drug uptake (Pancreas [19])?
**A.** 3.52 % ID/g

**Q.** And the Drug uptake (Pancreas [20])?
**A.** 3.94 % ID/g

**Q.** What about the Drug uptake (Muscle tissue [21]) of the same molecule?
**A.** 1.6 % ID/g

**Q.** And the Drug uptake (Brain [22])?
**A.** 0.12 % ID/g

**Q.** And the Drug uptake (Spleen [23])?
**A.** 1.36 % ID/g

**Q.** What about the “Ratio AUC” value (Brain [24]) of the same molecule?
**A.** 8

**Q.** What about the Drug uptake (Pancreas [25]) of the same molecule?
**A.** 2.66 % ID/g

**Q.** And the Drug uptake (Brain [26])?
**A.** 0.21 % ID/g

**Q.** What about the Drug uptake (Blood [27]) of the same molecule?
**A.** 3.14 % ID/g

**Q.** And the Drug uptake (Muscle tissue [28])?
**A.** 1.52 % ID/g

**Q.** And the Drug uptake (Lung)?
**A.** 3.76 % ID/g
